# Tests used:
# [1] = Stability of 1-mer conjugates in RPMI 1640+10% FCS (PAGE); format: in vitro ADME; conditions: up to 8 hrs, PAGE analysis
# Procedure: Initially, the stability of the two neoglycoconjugates was assessed in RPMI 1640+10% FCS. […] In terms of cellular uptake, the po-linked conjugate at a dose of 1 μM was taken up rapidly in a progressive manner by Hep G2 cells in vitro to the extent of 24.75 pmoles/10^6 cells at 480 min. The rate of cellular uptake was next analyzed with respect to the administered dose of the conjugate. […] This amount doubled within the next 30 min and peaked at 25 pmoles/million cells at 480 min. […] While the administration of 4 μM conjugate led to a linear increase of conjugate uptake with respect to time, the rate at which cellular uptake occurred upon the administration of 8 μM conjugate rose sharply at 120 min.
# TS = molecular target: T1, TS (Homo sapiens, UniProt P04818); assay: TS activity in tumor of xenografted mice; format: in vivo, CD-1 nude mice; conditions: treated
# T1 construct: from tissue; host or cells: subcutaneous Hep G2 xenograft tumour from CD-1 nude mice
# T1 sequence (P04818 2-313 limits assumed): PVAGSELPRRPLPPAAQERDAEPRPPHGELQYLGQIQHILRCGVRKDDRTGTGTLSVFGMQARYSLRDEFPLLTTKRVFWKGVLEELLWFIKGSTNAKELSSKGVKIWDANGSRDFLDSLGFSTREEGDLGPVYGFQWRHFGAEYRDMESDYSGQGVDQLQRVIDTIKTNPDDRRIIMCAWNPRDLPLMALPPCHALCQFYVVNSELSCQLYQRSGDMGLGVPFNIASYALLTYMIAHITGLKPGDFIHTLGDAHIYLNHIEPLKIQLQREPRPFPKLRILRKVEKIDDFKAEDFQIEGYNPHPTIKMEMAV
# Procedure: Initial effects of po 1-mer treatment were noticed after about 5 weeks. Overall, however, tumors continued to grow after this point, but at a slower rate than the control. For instance, at 8 weeks post po 1-mer treatment, the average tumor weight of xenografted human hepatomas in nude CD-1 mice was about 7 g, whereas the average tumor weight of the saline control was about 15 g. Histological analysis was performed after 8 weeks in order to compare the tumors of the control cohort with the tumors of po 1-mer-treated nude mice. […] This weight loss may then be due to the tumor burden, rather than the therapeutic treatment, and was continued through week 8.
# After the treatment was completed, tumors were analyzed both histologically and for TS activity. […] Therefore, it can be deduced that increasing the dose of po 1-mer increased the efficacy without increasing systemic toxicity.
# alpha-fetoprotein (AFP) = assay: Serum AFP levels in tumor-bearing nude mice; format: in vivo, human; conditions: for level of AFP: 15 mg/kg weekly
# Source text: Xenotransplanted tumors have been previously shown to be responsive to 5FU chemotherapy as assayed by direct physical measurement of the tumor (Houghton et al., Biochem. Pharmacol., 36, 1285-1289 (1987)), histological changes and biochemical measurements, such as alpha-fetoprotein (AFP) levels (Lemoine et al., Pathol. Biol. (Paris), 47, 903-910 (1999)) and thymidylate synthase levels (Peters et al., J. Clin Oncol., 12, 2035-2042 (1994)). The xenograft tumors in nude mice are a widely used model for tumor studies that allows for direct measurement of the growth of human tumors. Male CD-1 nude mice (6-8 weeks old, 20-22 g in weight) were used for these bioefficacy studies. An injection of 10^8 Hep G2 cells was made subcutaneously into the subcapsular region of each mouse. Mice were observed daily for tumor formation. After tumors emerged, they were measured twice a week in two dimensions with sliding calipers. When the tumors reached a weight of 100 mg in weight as determined by the formula: [(weight, mg)=(length (mm)×width (mm))^2/2], treatment was initiated (Geran et al., Cancer Chemother. Rep., 3, 51-61 (1972)). Initially, mice were treated with 10 mg/kg dose once/week for 8 weeks. Subsequently, separate cohorts of mice were treated with 15 mg/kg weekly for 8 weeks and finally 10 mg/kg twice weekly for 8 weeks. The impact of treatment upon tumor growth was judged by direct measurement as described above. In addition, tumor progression was tracked by serological measurements, such as AFP levels. AFP levels were assayed weekly following each injection. Blood was taken retro-orbitally from each mouse. AFP levels were assayed immunochemically, using kits supplied by Abbott Laboratories (Waukegan, Ill.) and based on the methods of Wang et al. (Cancer Res., 50, 869s-872s (1990)). Measurements of AFP levels were intended to complement direct physical measurement as an indicator of tumor progression. Generally, serum AFP levels behave as if they reflect tumor mass. […]
structure (smiles),measurement,setting,value
"CC(=O)N[C@H]1[C@H](OCCCCCCNC(=O)CC[C@H](NC(=O)CC[C@H](NC(=O)[C@H](Cc2ccc(O)cc2)NC(=O)C2CCC(CN3C(=O)CC(SCCCCCCOP(=O)(O)OC[C@H]4O[C@@H](n5cc(F)c(=O)[nH]c5=O)C[C@@H]4O)C3=O)CC2)C(=O)NCCCCCCO[C@@H]2O[C@H](CO)[C@H](O)[C@H](O)[C@H]2NC(C)=O)C(=O)NCCCCCCO[C@@H]2O[C@H](CO)[C@H](O)[C@H](O)[C@H]2NC(C)=O)O[C@H](CO)[C@H](O)[C@@H]1O (stereo partly drawn) [po 1-mer, YEE(ahGalNAc)3-SMCC-poFU]",stability in media containing 10% FCS,[1],stable
same,"TS activity, COUNTS/MG PROTEIN",TS; weekly 10 mg/kg,17641 counts/mg protein
same,"TS activity, COUNTS/MG PROTEIN",TS; weekly 15 mg/kg,8591 counts/mg protein
same,AFP measurements,"alpha-fetoprotein (AFP); 10 mg/kg twice weekly, week 6",below the limits of detection
same,level of AFP,alpha-fetoprotein (AFP); after 3 weeks of treatment,less than 200 μg/ml
same,level of AFP,alpha-fetoprotein (AFP); week 8,below the level of detection
